Values of other authors, collected in patent US20080318218A1, “Compositions and Methods for Inferring an Adverse Effect in Response to a Drug Treatment” (DNAPrint Genomics, Inc., priority 2004, published 2008).
One block for each compound: values may come before it.

Legend:
[1] = human, in vivo
NO synthase = conditions: ACE inhibitor-associated cough; P<0.01; not with placebo
[2] = clinical trials

patients exhibiting persistent and dose-dependent indications of hepatic stress (elevation in serum transaminase SGOT, ALTGPT) [1]: Approximately 0.7%
SMILES: CC(C)c1c(C(=O)Nc2ccccc2)c(-c2ccccc2)c(-c2ccc(F)cc2)n1CC[C@@H](O)C[C@@H](O)CC(=O)O [Atorvastatin]

SMILES: [Fe] [iron]
cough scores (NO synthase): significant reduction

patients experiencing muscle discomfort and/or creatine kinase elevations in response to treatment [2]: about 1%
SMILES: COCc1c(C(C)C)nc(C(C)C)c(/C=C/[C@@H](O)C[C@@H](O)CC(=O)O)c1-c1ccc(F)cc1 [Baycol, Cerivastatin]
